Experimental data published in BigSolDB 2.1.

C[C@@H]1O[C@@H](OC[C@H]2O[C@@H](Oc3c(-c4ccc(OCCO)c(OCCO)c4)oc4cc(OCCO)cc(O)c4c3=O)[C@H](O)[C@@H](O)[C@@H]2O)[C@H](O)[C@H](O)[C@H]1O
solubility (mole fraction)
Details	288.15 K	293.15 K	298.15 K	303.15 K	308.15 K	313.15 K	318.15 K	323.15 K
in 1,4-dioxane	0.000517	0.000596	0.000724	0.000865	0.00103	0.00121	0.00144	0.00171
in acetone	3.1e-05	3.4e-05	4.2e-05	5.5e-05	7e-05	9.1e-05	0.000124	0.000162
in acetonitrile	8e-06	1.2e-05	1.5e-05	2.1e-05	2.8e-05	3.8e-05	4.9e-05	7e-05
in ethanol	0.000228	0.000252	0.00029	0.000346	0.000407	0.000468	0.000547	0.000632
in isobutanol	4.1e-05	5.4e-05	7e-05	9e-05	0.000125	0.000176	0.000238	0.000312
in isopropanol	9.3e-05	0.000119	0.000161	0.000207	0.000268	0.000329	0.000403	0.000519
in methanol	0.000245	0.000291	0.000362	0.00045	0.000573	0.000714	0.000876	0.00107
in n-butanol	8e-05	0.000102	0.000142	0.000187	0.000248	0.000312	0.000382	0.000494
in n-pentanol	7.1e-05	9e-05	0.000107	0.000132	0.00017	0.000222	0.000289	0.000377
in n-propanol	0.000144	0.000177	0.000215	0.000258	0.000317	0.000377	0.000458	0.000562
in sec-butanol	8.6e-05	0.000108	0.00015	0.000194	0.000254	0.000319	0.000391	0.000505
